“Also recorded” adds a separate entry of the source.
Columns and labels:
MEF cells [1] = assay: Glucose uptake, 2-NBDG labeling, high-content imaging (Operetta), MEFs; assay type: cell-based, mouse
Experimental: (§1) Increased glucose uptake was indicated as increasing signal of 2-NBDG ([…]) in cells. Glucose uptake assays were carried out in a final incubation volume of 50 μl consisting of, 2-NBDG), (100 μM) in 1× Phosphate Buffered Saline w/Ca+, Mg+ (PBS++). The same buffer was used for washing cells. Insulin was used as a positive control. All testing compounds were prepared in 10% DMSO and diluted 1:100 for a final concentration of 0.1% DMSO (vehicle). Cells were culture to 70-90% confluence and then washed twice with PBS++. Cells were incubated for 30 minutes at 37° C. in PBS++. Nuclear stain, HCS CellMask stain (blue, Invitrogen), and/or testing compounds (ellagic acid dihydrate, insulin, or vehicle) were added. Cells were incubated for 30 min at 37° C. Cells were washed twice with PBS++ and incubated with 2-NBDG for 10 minutes. Cells were washed thrice with PBS++ and then imaged in PBS++. Alternatively, the final PBS wash was removed and cells were incubated with Accutase (Invitrogen) for 10 min at 37° C., neutralized with 10% FBS in 1×PBS, and analyzed by flow cytometry. An additional experiment was performed to measure glucose uptake in C2Cl2 cells exposed to metformin, insulin and ellagic acid dihydrate 2 (batch 2). FIG. 5C. Glucose uptake in ellagic acid dihydrate treated cell culture was measured and compared to glucose uptake under insulin or ellagic acid treatment. […] Flow cytometry results were run in triplicate with 1000 cells per batch.

[2] = Weight loss and blood glucose in female SWV mice with STZ induced diabetes, 30 days gavage; assay type: in vivo, mouse; settings: thirty days
Experimental: Weight loss and blood glucose in diabetes induced mice treated with ellagic acid was determined and weight loss and blood glucose in mice treated with ellagic acid dihydrate may be determined by the following procedures. Induction of Diabetes: Diabetes is induced in mice by intraperitoneal injection with Streptozotocin (STZ 40 mg/kg) daily for five days. The mice are considered hyperglycemic when the glucose level of each dam is above 200 mg/dL. The mice are fasted for 4 hours before STZ injection and glucose measurement. Treatment: The mice are treated daily for thirty days with ellagic acid or control in the form of a supplemental pill homogenized and suspended in 25% water solution of Cremophor EL. The mice are treated for one month via gavage using the human equivalent dose of 122.4 mg pill/kg of subject (40.6 mg ellagic acid/kg of the subject), the human equivalent does of 40.6 mg ellagic acid/kg of the subject using 98% pure ellagic acid, or control vehicle (25% water solution of Cremophor EL). The human equivalent dose is calculated as described in Example 8. Treatments would start two weeks after the last STZ injection in which hyperglycemia is confirmed in the diabetic mice. The mice would be weighed daily and glucose levels would be measured in fasted animals every five days.

Activity level in mice = assay type: in vivo, mouse; settings: mice, Applicant's observation
From the text: Activity levels in mice treated with ellagic acid dihydrate may be quantified by several procedures, such as those outlined in Turri, M. et al.; QTL Analysis Identifies Multiple Behavioral Dimensions in Ethological Tests of Anxiety in Laboratory Mice; Current Biology; 2001; 11(10): 725-734. Two examples of procedures taught therein follows. Gross Locomotor Activity in Home Cage: Mice are caged singly several days prior to home cage activity monitoring and subsequent testing. Activity in home cages are measured during the first 2 hours of the dark cycle on two consecutive days. Two infrared photo emitter-detector pairs, located outside the clear plastic home cage that divide the cage into three equal areas, are used to record gross locomotor activity on the floor of the home cage as the animal breaks the photo beams. The beam-break activity score consists of the square root of the number of beam breaks for each detector summed across the two test days. Magnitude of Activity in Home Cage: Mice are caged singly several days prior to home cage activity monitoring and subsequent testing. Activity in home cages are measured during the first 2 hours of the dark cycle on two consecutive days. An infrared motion detector located above the top of the home cage is employed to converts all motion sensed within the home cage into arbitrary units, based on the magnitude of activity detected.

AKT = assay: AKT:Phos AKT ratio by immunocytochemistry, high-content imaging in C2C12; assay type: cell-based, mouse; settings: serum starved C2C12, 30 minutes; 4 nM-4 μM for insulin and ellagic acid dihydrate
Experimental: Stimulation of AKT pathways and MAPK pathways in ellagic acid dihydrate, metformin, and insulin treated cell cultures was performed. Insulin stimulates glucose uptake into cells by increasing GLUT4 activation, and AKT, specifically phos-AKT, signaling alters GLUT4 translocation. […] Cellular assays were performed using mouse myoblast C2C12 cells. […] Serum starved cells (1 hr) were treated for 30 minutes with each of the tested compounds.

p44/42 MAPK = assay: p44/42 MAPK:Phos p44/42 MAPK ratio by immunocytochemistry, high-content imaging in C2C12; assay type: cell-based, mouse; settings: serum starved C2C12, 30 minutes, 0.04 nM
Experimental: Stimulation of AKT pathways and MAPK pathways in ellagic acid dihydrate, metformin, and insulin treated cell cultures was performed. Insulin stimulates glucose uptake into cells by increasing GLUT4 activation, and AKT, specifically phos-AKT, signaling alters GLUT4 translocation. […] Cellular assays were performed using mouse myoblast C2C12 cells. Relative protein levels of AKT:phos AKT and p44/42 MAPK:phos p44/42 MAPK were determined.
Serum starved cells (1 hr) were treated for 30 minutes with each of the tested compounds. Ratios of phosphorylated to non-phosphorylated proteins were determined using immunocytochemistry labeling (anti-AKT, anti-Phos AKT; or anti-p44/42 MAPK, anti-Phos p44/42 MAPK) on a high-content imaging system (Operetta, Perkin Elmer) using the fluorescent signal of anti-rabbit Alexa 647. Increased phosphorylation is indicated as decrease in signal of AKT:Phos AKT ratio (log 2 scale) and p44/42 MAPK:Phos p44/42 MAPK ratio (log 2 scale) relative to vehicle treated cells.

MEF cells [3] = assay: Glucose uptake, 2-NBDG labeling, flow cytometry, MEFs; assay type: cell-based, mouse; settings: flow cytometry
Experimental: as §1, with “Cellular assays were performed using mouse myoblast C2C12 cells and MEF cells. […] Increased” for “Increased”

[4] = system: mouse myoblast C2C12 cells; assay: Glucose uptake, 2-NBDG labeling, flow cytometry, C2C12; assay type: cell-based
Experimental: Cellular assays were performed using mouse myoblast C2C12 cells and MEF cells. […] Increased glucose uptake was indicated as increasing signal of 2-NBDG ([…]) in cells. Glucose uptake assays were carried out in a final incubation volume of 50 μl consisting of, 2-NBDG), (100 μM) in 1× Phosphate Buffered Saline w/Ca+, Mg+ (PBS++). The same buffer was used for washing cells. Insulin was used as a positive control. All testing compounds were prepared in 10% DMSO and diluted 1:100 for a final concentration of 0.1% DMSO (vehicle). Cells were culture to 70-90% confluence and then washed twice with PBS++. Cells were incubated for 30 minutes at 37° C. in PBS++. Nuclear stain, HCS CellMask stain (blue, Invitrogen), and/or testing compounds (ellagic acid dihydrate, insulin, or vehicle) were added. Cells were incubated for 30 min at 37° C. Cells were washed twice with PBS++ and incubated with 2-NBDG for 10 minutes. Cells were washed thrice with PBS++ and then imaged in PBS++. Alternatively, the final PBS wash was removed and cells were incubated with Accutase (Invitrogen) for 10 min at 37° C., neutralized with 10% FBS in 1×PBS, and analyzed by flow cytometry. An additional experiment was performed to measure glucose uptake in C2Cl2 cells exposed to metformin, insulin and ellagic acid dihydrate 2 (batch 2). FIG. 5C.

GLUT4-GFP = assay: Localization of glucose transporter GLUT4-GFP, time-lapse confocal microscopy in C2C12; assay type: cell-based, mouse; settings: C2C12, 4000 nM exposure
Experimental: Induction of glucose transporter, GLUT-4, in ellagic acid dihydrate treated cell cultures was studied. Cellular assays were performed using mouse myoblast C2C12 cells. The cells were infected with a fusion glucose transporter 4 green fluorescent protein (GLUT4-GFP). This protein allows the visualization of GLUT4 by imaging the GFP under fluorescent time-lapse microscopy. Frames were compiled to produce time-lapse images of cellular changes with no treatment or treatment with insulin. The localization of glucose transporter (GLUT4-GFP) was performed in final incubation volume of 505 μL, consisting of 500 μl of Hank's Buffer (Invitrogen) and 5 μl of tested compounds. Insulin was used as positive controls and vehicle (0.1% DMSO) as the negative control. All test compounds were prepared in 10% DMSO and diluted 1:100 for a final concentration of 0.1% DMSO (vehicle). The cells were rinsed in Hank's Buffer thrice and then incubated in Hank's Buffer at 37° C. for one hour. The test compounds were added (ellagic acid dihydrate, insulin, or vehicle) and the cells were imaged using laser-confocal microscopy (Leica TCS SP5 X) with FITC fluorescent filters to determine changes in GLUT4-GFP localization. Time-lapse images (TIF) were collected and post-processed using Image-J (NIH) for video construction.

Compound | dose effect for increasing glucose uptake (MEF cells [1]) | mean glucose level values, treated versus control mice ([2]; STZ diabetic mice) | average loss of body weight ([2]; female SWV mice with STZ induced diabetes, human equivalent dose (40.6 mg ellagic acid/kg), gavage daily, control lost 2.2%) [%] | activity levels (Activity level in mice) | AKT:Phos AKT ratio (log 2 scale) relative to vehicle treated cells (AKT) | p44/42 MAPK:Phos p44/42 MAPK ratio relative to vehicle (p44/42 MAPK) | increased glucose uptake (percent change relative to vehicle) (MEF cells [3]; 400 nM exposure, fibroblasts (MEFs)) [%] | dose effect for increasing glucose uptake (MEF cells [3]; MEFs, 2-NBDG) | glucose uptake (2-NBDG signal) relative to vehicle (MEF cells [3]; MEFs, vehicle 0.1% DMSO) | dose effect for increasing glucose uptake ([4]; C2C12, flow cytometry, 2-NBDG) | glucose uptake (2-NBDG signal) relative to vehicle ([4]; C2C12, flow cytometry, vehicle 0.1% DMSO) | increase in glucose uptake in myoblasts relative to fibroblasts ([4]; C2C12 myoblasts versus MEF fibroblasts) [×] | glucose uptake (2-NBDG signal) (MEF cells [1]; versus vehicle (Neg, 0.1% DMSO)) | GLUT4-GFP localization (GLUT4-GFP) | ruffling of filopodia at the surface of the cell (GLUT4-GFP) | p44/42 MAPK:Phos p44/42 MAPK ratio relative to vehicle (p44/42 MAPK; 400 nM)
O=c1oc2c(O)c(O)cc3c(=O)oc4c(O)c(O)cc1c4c23 [ellagic acid] | little to no glucose uptake per unit dose; also recorded: no such dose effect was seen | no significant differences between the mean glucose level values | 11.7 | increased activity levels | – | – | – | – | – | – | – | – | – | – | – | –
CN(C)C(=N)N=C(N)N [metformin] | – | – | – | – | increase in AKT relative to phosphorylation of AKT | increased the ratio of p44/42 MAPK | – | – | – | – | – | – | – | – | – | –
insulin [reference compound] | dose effect for increasing glucose uptake | – | – | – | −0.5 | – | 32 | dose effect for increasing glucose uptake | significant increase in glucose uptake relative to the vehicle | dose effect for increasing glucose uptake | significant increase in glucose uptake relative to the vehicle | ~4 | showed an increase in glucose uptake | decrease in GLUT4-GFP around the cell nucleus and a parallel increase of movement at the membrane | rapid production of numerous projections (ruffling of filopodia) at the surface of the cell | increase in p44/42 MAPK

— patent publication US20170367390A1, “USE OF ELLAGIC ACID DIHYDRATE IN FOOD PRODUCTS AND NUTRACEUTICALS” (HALO LIFE SCIENCE, LLC, priority 2014, published 2017)
